Measured values published in patent US20230257365A1, “SMALL MOLECULE ANDROGEN RECEPTOR PROTEIN DEGRADERS” (THE REGENTS OF THE UNIVERSITY OF MICHIGAN, priority 2020, published 2023).

Biological target: T1, AR protein (Homo sapiens, UniProt P10275)
T1 construct: endogenous in cells; host or cells: VCaP
T1 sequence (P10275 1-920): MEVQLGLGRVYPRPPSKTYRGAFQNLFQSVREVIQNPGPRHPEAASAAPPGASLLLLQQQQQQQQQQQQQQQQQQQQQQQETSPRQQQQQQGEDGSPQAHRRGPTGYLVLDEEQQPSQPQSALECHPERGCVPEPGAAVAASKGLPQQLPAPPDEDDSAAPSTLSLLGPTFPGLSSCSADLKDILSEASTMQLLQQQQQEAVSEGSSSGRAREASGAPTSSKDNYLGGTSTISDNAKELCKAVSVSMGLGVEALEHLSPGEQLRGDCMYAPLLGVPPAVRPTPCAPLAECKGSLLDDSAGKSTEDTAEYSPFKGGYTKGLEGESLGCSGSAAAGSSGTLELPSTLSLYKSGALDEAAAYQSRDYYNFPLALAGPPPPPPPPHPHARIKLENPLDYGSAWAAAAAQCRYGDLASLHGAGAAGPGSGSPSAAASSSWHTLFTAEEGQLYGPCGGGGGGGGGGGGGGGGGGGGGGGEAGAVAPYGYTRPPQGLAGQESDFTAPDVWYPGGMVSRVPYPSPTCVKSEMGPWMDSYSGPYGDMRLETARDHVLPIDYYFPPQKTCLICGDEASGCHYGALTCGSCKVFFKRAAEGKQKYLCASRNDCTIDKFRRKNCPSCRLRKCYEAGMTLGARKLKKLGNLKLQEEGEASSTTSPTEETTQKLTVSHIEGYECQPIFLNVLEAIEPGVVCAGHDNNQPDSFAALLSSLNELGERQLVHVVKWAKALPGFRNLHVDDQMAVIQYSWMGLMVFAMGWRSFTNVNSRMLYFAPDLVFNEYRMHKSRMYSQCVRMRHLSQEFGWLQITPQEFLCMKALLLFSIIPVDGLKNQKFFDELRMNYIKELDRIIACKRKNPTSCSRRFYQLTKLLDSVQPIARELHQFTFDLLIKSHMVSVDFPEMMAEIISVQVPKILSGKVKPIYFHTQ
Assay: AR protein degradation by western blotting in VCaP cells
Type: cell-based
Protocol: The appropriate cell line, e.g., prostate cancer LNCaP, Vcap, or MDA-MB-453, cell line, was treated with Compounds of the Disclosure. The treated cells were lysed with RIPA buffer. The AR level in the cell lysates was examined by western blotting and a specific AR antibody (ab 194196, Abeam, Cambridge, Mass. 02139) with concentration of 1:20,000. GAPDH was used as a loading control.
Bands were quantified with ImageJ software. The relative numbers of each band obtained from normalization with its corresponding GAPDH level were compared with Prism 8 software. The DC50 values were produced from Prism 8, and the DC90 values were calculated with an equation=Bottom+(Top−Bottom)/(1+10^((Log EC50−X)*HillSlope) based on DC50 and Hillslope values.
The amount of AR protein degradation in LNCap, VCap, and MDA-MB-453 cells caused representative Compounds of the Disclosure at the concentrations indicated is presented in Table 4.

| % AR protein degradation in VCaP Cells (0.001 μM) [%] | % AR protein degradation in VCaP Cells (0.01 μM) [%] | % AR protein degradation in VCaP Cells (0.1 μM) [%] | % AR protein degradation in VCaP Cells (1 μM) [%] | SMILES |
| --- | --- | --- | --- | --- |
| −1 | −12 | 8 | 93 | N#Cc1ccc(-c2ccn(Cc3ccc(C(=O)N4CCN(C5CCN(c6ccc7c(c6)C(=O)N(C6CCC(=O)NC6=O)C7=O)CC5)CC4)cc3)n2)cc1Cl (stereo not drawn) [compound 338, 2-chloro-4-(1-(4-(4-(1-(2-(2,6-dioxopiperidin-3-yl)-1,3-dioxoisoindolin-5-yl)piperidin-4-yl)piperazine-1-carbonyl)benzyl)-1H-pyrazol-3-yl)benzonitrile] |
| 18 | 12 | 9 | 29 | N#Cc1ccc(OC2CCCN(C(=O)c3ccc(N4CCC(N5CCN(c6ccc7c(c6)C(=O)N(C6CCC(=O)NC6=O)C7=O)CC5)CC4)cc3)CC2)cc1Cl (stereo not drawn) [compound 337, 2-chloro-4-((1-(4-(4-(4-(2-(2,6-dioxopiperidin-3-yl)-1,3-dioxoisoindolin-5-yl)piperazin-1-yl)piperidin-1-yl)benzoyl)azepan-4-yl)oxy)benzonitrile] |
| 3 | −5 | −5 | 4 | N#Cc1ccc(OC2CCN(C(=O)c3ccc(N4CCC(N5CCN(c6ccc7c(c6)C(=O)N(C6CCC(=O)NC6=O)C7=O)CC5)CC4)cc3)CC2)cc1Cl (stereo not drawn) [compound 336, 2-chloro-4-((1-(4-(4-(4-(2-(2,6-dioxopiperidin-3-yl)-1,3-dioxoisoindolin-5-yl)piperazin-1-yl)piperidin-1-yl)benzoyl)piperidin-4-yl)oxy)benzonitrile] |
